Assay results: patent US5728709A, “Alkyl and aralkyl-substituted pyrrolocarbazole derivatives that stimulate platelet production” (Kyowa Hakko Kogyo Co., Ltd., priority 1995, dated 1998)
Like-named read-outs stand apart in the source and are kept apart here.

Experiments:
[1] = system: Megakaryocyte Colony Formation; test: Megakaryocyte Colony Formation-Stimulating Activity; assay type: cell-based, Balb/c mouse; conditions: IL-3 present, 7 days culture, relative to control (IL-3 alone) = 100
Protocol: An eight-week-old Balb/c mouse was killed. Its femurs and cervical vertebrae were taken out and both ends thereof were cut off. Bone marrow cells were collected from the pieces cut off from the femurs and cervical vertebrae using a syringe containing IMDM (430-2200EA manufactured by Gibco Co.), and blown into a test tube. The test tube was allowed to stand for 5 minutes, and the supernatant was collected with a pipet. Each of the test compounds at various concentrations was separately added to a separate reaction mixture corltaining the bone marrow cells (50,000 cells), bovine serum albumin (2%: A4508, manufactured by Sigma Co.), transferrin (600 μg/ml: 652202, manufactured by Boehringer Mannheim Co.), IL-3 (100 U/ml) , cholesterol (16 μg/ml: 036-0641, manufactured by Wako Co.) and agar (0.6%: 0142-02, manufactured by Difco Laboratories);Then, 1 ml each of the mixtures was put into a 35-mm dishes (manufactured by Lux Co.); and cultured at 37° C., 5% CO2, and relative humidity of not less than 95%, for 7 days. A control was prepared by adding IL-3 alone to the bone marrow cells. After the completion of the culturing, the resultant agar was dried by using filter paper (1001-055, manufactured by Whatman Co.), fixed with 2.5% glutaraldehyde, followed by acetylcholinesterase staining (ACHE staining).
ACHE staining was carried out according to the following method:
ACHE staining: To each sample was added a solution containing 0.67 mg/ml acetylthiocholine iodide, 2.94 mg/ml sodium citrate, 7.5 mg/ml copper (II) sulfate, and 1.65 mg/ml potassium ferricyanide. Then, the mixture was allowed to stand at room temperature in the dark for 4 to 6 hours.
A group of 4 or more megakaryocytes which were stained reddish brown was regarded as one colony, and the number of colonies per dish was calculated using a microscope.
The results are shown in Table 5 as values relative to the control. (In the table, the relative values were calculated on the basis of the control defined as 100).

Platelet Production = test: Platelet Production-Stimulating Activity in Mice; assay type: in vivo; conditions: Mus musculus, 360 h, male Balb/c mice, 15th day, control = 100, read-out: Ratio of increase (number of platelets, A/B×100); for response vs control in vivo at 50 mg/kg: 50 mg/kg i.p. once a day for 5 days
Protocol: A test compound was intraperitoneally (i. p.) or subcutaneously (s. c.) administered to 7-week-old male Balb/c mice once a day for consecutive 5 days (test group, 4 mice per group). A control group (4 mice per group) was administered only a solvent (5% Tween 80/water) alone. On the 15th day from the start of the administration, blood was collected from the fundus oculi vein of each mouse, and the number of platelets was counted with a micro counter (Model CC-180A, manufactured by Toa Iryo Denshi Co.). The rate (%) of increase in the number of platelets in the test group which had been administered test compounds over the control group was calculated according to the following formula to evaluate the effect of the test compound.
[Ratio of increase]=A/B×100
A: the number of platelets in the test group
B: the number of platelets in the control group

[2] = sc, free base, 10 mg/kg s.c. once a day for 5 days
[3] = sc, 10 mg/kg s.c. once a day for 5 days

Row | Compound | Rel. Value (megakaryocyte colony formation, control defined as 100) ([1]; 1 nM) | Rel. Value (megakaryocyte colony formation, control defined as 100) ([1]; 10 nM) | also measured
1 | CC(CN(C)C)Oc1ccccc1-c1cc2c(c3c1C(=O)N(C)C3=O)c1ccccc1n2C (stereo not shown) [Compound 102] | 142 |  | response vs control in vivo at 10 mg/kg (Platelet Production; [2]): 123%
2 | CN(C)CCn1c(=O)c2c(c3c(c4c5ccccc5n(C)c42)C(=O)N(C)C3=O)c2ccccc21 [Compound 93] |  |  | Rel. Value (megakaryocyte colony formation, control defined as 100) ([1]; 0.1 nM): 119; response vs control in vivo at 50 mg/kg (Platelet Production; ip): 176%
3 | CN(C)CCOc1ccc(OCc2ccccc2)cc1-c1cc2c(c3c1C(=O)N(C)C3=O)c1ccccc1n2C [Compound 147] |  |  | response vs control in vivo at 10 mg/kg (Platelet Production; [3]): 154%
4 | O=C1c2c(-c3ccccc3[N+](=O)[O-])cc3[nH]c4ccccc4c3c2C(=O)N1Cc1ccccc1 [Compound 1] | 147 |  | 
5 | CN(C)CCCNc1ccccc1-c1cc2c(c3c1C(=O)N(C)C3=O)c1ccccc1n2C [Compound 51] |  | 141 | 
6 | CN(C)CCNc1ccc(Br)cc1-c1cc2c(c3c1C(=O)N(C)C3=O)c1ccccc1n2C [Compound 82] |  | 119 | 
7 | CN(C)CCNc1ccc([N+](=O)[O-])cc1-c1cc2c(c3c1C(=O)N(C)C3=O)c1ccccc1n2C [Compound 79] |  |  | response vs control in vivo at 25 mg/kg (Platelet Production; ip, 25 mg/kg i.p. once a day for 5 days): 180%
8 | CN1C(=O)c2c(-c3ccccc3N)cc3c(c2C1=O)c1ccccc1n3Cc1ccc(N)cc1 [Compound 17] | 123 |  | 
9 | CN1C(=O)c2c(-c3ccccc3N)cc3[nH]c4ccccc4c3c2C1=O [Compound 11] |  | 128 | 
10 | CN1C(=O)c2c(-c3ccccc3[N+](=O)[O-])cc3[nH]c4ccccc4c3c2C1=O [Compound 10] | 120 |  | 
11 | CC(=O)c1ccc2c(c1)c1c3c(c(-c4ccccc4OCCN(C)C)cc1n2C)C(=O)N(C)C3=O [Compound 180] |  |  | response vs control in vivo at 10 mg/kg (Platelet Production; [3]): 189%
12 | CN(C)CC(=O)Nc1ccccc1-c1cc2c(c3c1C(=O)N(C)C3=O)c1ccccc1n2C [Compound 56] | 116 |  | 
13 | CN(C)CCCn1c2ccccc2c2c3c(c(-c4ccccc4[N+](=O)[O-])cc21)C(=O)N(C)C3=O [Compound 24] | 125 |  | response vs control in vivo at 10 mg/kg (Platelet Production; ip, 10 mg/kg i.p. once a day for 5 days): 125%
14 | CN(C)CCOc1c(N)cccc1-c1cc2c(c3c1C(=O)N(C)C3=O)c1ccccc1n2C [Compound 203] |  |  | response vs control in vivo at 10 mg/kg (Platelet Production; [3]): 146%
15 | CN1C(=O)c2c(-c3ccccc3NCCO)cc3c(c2C1=O)c1ccccc1n3C [Compound 37] | 130 |  | 
16 | CN(C)CCOc1ccc(C=O)cc1-c1cc2c(c3c1C(=O)N(C)C3=O)c1cc(Br)ccc1n2C [Compound 160] |  | 120 | response vs control in vivo at 10 mg/kg (Platelet Production; [3]): 117%
17 | CN(C)CCCn1c2ccccc2c2c3c(c(-c4ccccc4NCCN(C)C)cc21)C(=O)N(C)C3=O [Compound 36] |  | 149 | 
18 | CN(C)CCNc1ccccc1-c1cc2c(c3c1C(=O)N(C)C3=O)c1ccccc1n2C [Compound 40] | 138 |  | response vs control in vivo at 50 mg/kg (Platelet Production; ip): 174%
19 | CN1C(=O)c2c(-c3ccccc3[N+](=O)[O-])cc3c(c2C1=O)c1ccccc1n3CCCCN1CCOCC1 [Compound 34] |  |  | Rel. Value (megakaryocyte colony formation, control defined as 100) ([1]; 0.1 nM): 114
20 | CN(C)CCOc1ccccc1-c1cc2c(c3c1C(=O)N(C)C3=O)c1ccccc1n2C [Compound 66] |  | 119 | response vs control in vivo at 50 mg/kg (Platelet Production; ip): 206%
21 | CN(C)CCOc1ccc(N(C)C)cc1-c1cc2c(c3c1C(=O)N(C)C3=O)c1ccccc1n2C [Compound 170] | 125 |  | response vs control in vivo at 10 mg/kg (Platelet Production; [3]): 138%
22 | CN(C)CCOc1ccccc1-c1cc2c(c3c1C(=O)N(C)C3=O)c1cc(C=O)ccc1n2C [Compound 177] |  | 120 | 
23 | CN(C)CCCn1c2ccccc2c2c3c(c(-c4ccccc4N(C)C)cc21)C(=O)N(C)C3=O [Compound 26] |  | 110 | 
24 | CCN(CC)CCC(=O)Nc1ccccc1-c1cc2c(c3c1C(=O)N(C)C3=O)c1ccccc1n2C [Compound 60] | 110 |  | 
25 | CN(C)CCOc1ccc(Br)cc1-c1cc2c(c3c1C(=O)N(C)C3=O)c1ccccc1n2C [Compound 130] |  |  | response vs control in vivo at 10 mg/kg (Platelet Production; [2]): 295%
26 | Nc1ccccc1-c1cc2[nH]c3ccccc3c2c2c1C(=O)N(Cc1ccccc1)C2=O [Compound 5] | 117 |  | response vs control in vivo at 50 mg/kg (Platelet Production; ip): 111%
